Values of other authors, collected in patent publication US7169586B2, “Mutant N-acetylglutamate synthase and method for L-arginine production” (Ajinomoto Co., Inc., priority 2000, dated 2007).

Key:
[1] = target: NAGS (Escherichia coli, UniProt P0A6C5); conditions: Leisinger and Haas 1975; read-out: Ki, inhibition of NAGS activity
[2] = test system: argA expression; conditions: Cunin et al. 1986; Leisinger and Haas 1975

Sequence of NAGS (P0A6C5 whole entry): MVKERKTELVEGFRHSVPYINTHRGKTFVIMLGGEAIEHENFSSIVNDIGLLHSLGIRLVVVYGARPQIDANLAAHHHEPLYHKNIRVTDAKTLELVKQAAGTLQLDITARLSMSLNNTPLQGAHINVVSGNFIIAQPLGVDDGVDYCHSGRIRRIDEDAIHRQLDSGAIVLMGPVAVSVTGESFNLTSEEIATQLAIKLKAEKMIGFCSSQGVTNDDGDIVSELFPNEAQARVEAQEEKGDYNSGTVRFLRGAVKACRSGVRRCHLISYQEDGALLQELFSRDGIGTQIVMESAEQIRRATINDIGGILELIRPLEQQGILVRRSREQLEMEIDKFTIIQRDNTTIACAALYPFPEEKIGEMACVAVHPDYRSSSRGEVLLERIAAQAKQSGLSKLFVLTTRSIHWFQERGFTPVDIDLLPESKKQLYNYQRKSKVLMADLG

N=C(N)NCCC[C@H](N)C(=O)O [L-Arginine]
Ki [1]: 20 µM
repression ratio of argA expression [2]: greater than 250
